# Data as given in PubChem BioAssay (NCI).
#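 How tested: cells in 96-well plates exposed to compound for 48 hours at five concentrations. TGI: total growth inhibition.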
# What was measured:
# Test in all cases: NCI anticancer screen, dose series, 48 h
# CCRF-CEM leukemia = system: CCRF-CEM leukemia
# T-47D breast = system: T-47D breast
# NCI-H23 lung = system: NCI-H23 lung
# HL-60(TB) leukemia = system: HL-60(TB) leukemia
# MDA-N = system: MDA-N
# KM12 colon = system: KM12 colon
# MDA-MB-231 breast = system: MDA-MB-231 breast
# SF-268 CNS = system: SF-268 CNS
# HCT-15 colon = system: HCT-15 colon
# 786-0 renal = system: 786-0 renal
# HOP-92 NSCLC = system: HOP-92 NSCLC
# DU-145 prostate = system: DU-145 prostate
# MDA-MB-435 = system: MDA-MB-435
# A549 NSCLC = system: A549 NSCLC
# PC-3 prostate = system: PC-3 prostate
# U251 CNS = system: U251 CNS
# HCT-116 colon = system: HCT-116 colon
# COLO 205 colon = system: COLO 205 colon
# BT-549 breast = system: BT-549 breast
# SNB-19 CNS = system: SNB-19 CNS
# ACHN renal = system: ACHN renal
# UACC-257 melanoma = system: UACC-257 melanoma
# NCI-H522 lung = system: NCI-H522 lung
# SK-OV-3 ovarian = system: SK-OV-3 ovarian
# K-562 leukemia = system: K-562 leukemia
# IGROV1 ovarian = system: IGROV1 ovarian
# EKVX NSCLC = system: EKVX NSCLC
# SF-539 CNS = system: SF-539 CNS
# MALME-3M melanoma = system: MALME-3M melanoma
# RXF 393 renal = system: RXF 393 renal
# NCI/ADR-RES ovarian = system: NCI/ADR-RES ovarian
# RPMI-8226 leukemia = system: RPMI-8226 leukemia
# OVCAR-5 ovarian = system: OVCAR-5 ovarian
# UO-31 renal = system: UO-31 renal
# HS 578T breast = system: HS 578T breast
# TK-10 renal = system: TK-10 renal
# SK-MEL-2 melanoma = system: SK-MEL-2 melanoma
# NCI-H226 lung = system: NCI-H226 lung
# SK-MEL-28 melanoma = system: SK-MEL-28 melanoma
# HT29 colon = system: HT29 colon
# SF-295 CNS = system: SF-295 CNS
# HCC-2998 colon = system: HCC-2998 colon
# MOLT-4 leukemia = system: MOLT-4 leukemia
# OVCAR-3 ovarian = system: OVCAR-3 ovarian
# SNB-75 CNS = system: SNB-75 CNS
# NCI-H460 lung = system: NCI-H460 lung
# SK-MEL-5 melanoma = system: SK-MEL-5 melanoma
# OVCAR-8 ovarian = system: OVCAR-8 ovarian
# M14 melanoma = system: M14 melanoma
# SW-620 colon = system: SW-620 colon
# HOP-62 NSCLC = system: HOP-62 NSCLC
# UACC-62 melanoma = system: UACC-62 melanoma
# SN12C renal = system: SN12C renal
# A498 renal = system: A498 renal
# OVCAR-4 ovarian = system: OVCAR-4 ovarian
# LOX IMVI melanoma = system: LOX IMVI melanoma
# SR leukemia = system: SR leukemia
# CAKI-1 renal = system: CAKI-1 renal
# MCF7 breast = system: MCF7 breast
smiles,measurement,setting,value
CN(C)CCNc1c(O)c2c(c(O)c1Cl)C(=O)C=CC2=O,TGI,CCRF-CEM leukemia,4.72 µM
same,TGI,T-47D breast,4.38 µM
same,TGI,NCI-H23 lung,4.25 µM
same,TGI,HL-60(TB) leukemia,4.33 µM
same,TGI,MDA-N,4.64 µM
same,TGI,KM12 colon,3.39 µM
same,TGI,MDA-MB-231 breast,2.72 µM
same,TGI,SF-268 CNS,35.2 µM
same,TGI,HCT-15 colon,4.29 µM
same,TGI,786-0 renal,4.27 µM
same,TGI,HOP-92 NSCLC,4.25 µM
same,TGI,DU-145 prostate,3.36 µM
same,TGI,MDA-MB-435,3.68 µM
same,TGI,A549 NSCLC,5.41 µM
same,TGI,PC-3 prostate,17.8 µM
same,TGI,U251 CNS,3.74 µM
same,TGI,HCT-116 colon,3.32 µM
same,TGI,COLO 205 colon,3.47 µM
same,TGI,BT-549 breast,3.17 µM
same,TGI,SNB-19 CNS,3.76 µM
same,TGI,ACHN renal,9.76 µM
same,TGI,UACC-257 melanoma,3.09 µM
same,TGI,NCI-H522 lung,3.52 µM
same,TGI,SK-OV-3 ovarian,32.1 µM
same,TGI,K-562 leukemia,6.66 µM
same,TGI,IGROV1 ovarian,3 µM
same,TGI,EKVX NSCLC,7.69 µM
same,TGI,SF-539 CNS,3.28 µM
same,TGI,MALME-3M melanoma,3.64 µM
same,TGI,RXF 393 renal,15.4 µM
same,TGI,NCI/ADR-RES ovarian,7.08 µM
same,TGI,RPMI-8226 leukemia,8.14 µM
same,TGI,OVCAR-5 ovarian,3.12 µM
same,TGI,UO-31 renal,4.75 µM
same,TGI,HS 578T breast,7.56 µM
same,TGI,TK-10 renal,5.68 µM
same,TGI,SK-MEL-2 melanoma,3.95 µM
same,TGI,NCI-H226 lung,50.1 µM
same,TGI,SK-MEL-28 melanoma,4.36 µM
same,TGI,HT29 colon,3.29 µM
same,TGI,SF-295 CNS,4.05 µM
same,TGI,HCC-2998 colon,3.59 µM
same,TGI,MOLT-4 leukemia,> 100 µM
same,TGI,OVCAR-3 ovarian,3.61 µM
same,TGI,SNB-75 CNS,6.55 µM
same,TGI,NCI-H460 lung,3.63 µM
same,TGI,SK-MEL-5 melanoma,2.88 µM
same,TGI,OVCAR-8 ovarian,3.4 µM
same,TGI,M14 melanoma,3.64 µM
same,TGI,SW-620 colon,3.91 µM
same,TGI,HOP-62 NSCLC,3.65 µM
same,TGI,UACC-62 melanoma,3.74 µM
same,TGI,SN12C renal,3.41 µM
same,TGI,A498 renal,9.74 µM
same,TGI,OVCAR-4 ovarian,3.29 µM
Fc1ccc(F)c(C=NC23CC4CC(CC(C4)C2)C3)c1,TGI,CCRF-CEM leukemia,> 10 µM
same,TGI,T-47D breast,> 10 µM
same,TGI,NCI-H23 lung,> 10 µM
same,TGI,HL-60(TB) leukemia,6.94 µM
same,TGI,MDA-N,> 10 µM
same,TGI,KM12 colon,> 10 µM
same,TGI,SF-268 CNS,> 10 µM
same,TGI,HCT-15 colon,> 10 µM
same,TGI,786-0 renal,> 10 µM
same,TGI,HOP-92 NSCLC,> 10 µM
same,TGI,DU-145 prostate,> 10 µM
same,TGI,A549 NSCLC,> 10 µM
same,TGI,PC-3 prostate,> 10 µM
same,TGI,U251 CNS,> 10 µM
same,TGI,HCT-116 colon,> 10 µM
same,TGI,COLO 205 colon,> 10 µM
same,TGI,BT-549 breast,> 10 µM
same,TGI,SNB-19 CNS,> 10 µM
same,TGI,ACHN renal,> 10 µM
same,TGI,UACC-257 melanoma,> 10 µM
same,TGI,NCI-H522 lung,> 10 µM
same,TGI,SK-OV-3 ovarian,> 10 µM
same,TGI,K-562 leukemia,> 10 µM
same,TGI,IGROV1 ovarian,> 10 µM
same,TGI,EKVX NSCLC,> 10 µM
same,TGI,SF-539 CNS,> 10 µM
same,TGI,MALME-3M melanoma,> 10 µM
same,TGI,RXF 393 renal,> 10 µM
same,TGI,NCI/ADR-RES ovarian,> 10 µM
same,TGI,RPMI-8226 leukemia,> 10 µM
same,TGI,OVCAR-5 ovarian,> 10 µM
same,TGI,UO-31 renal,> 10 µM
same,TGI,HS 578T breast,> 10 µM
same,TGI,TK-10 renal,> 10 µM
same,TGI,SK-MEL-2 melanoma,> 10 µM
same,TGI,NCI-H226 lung,> 10 µM
same,TGI,SK-MEL-28 melanoma,> 10 µM
same,TGI,LOX IMVI melanoma,> 10 µM
same,TGI,SR leukemia,> 10 µM
same,TGI,HT29 colon,> 10 µM
same,TGI,SF-295 CNS,> 10 µM
same,TGI,HCC-2998 colon,> 10 µM
same,TGI,MOLT-4 leukemia,> 10 µM
same,TGI,OVCAR-3 ovarian,> 10 µM
same,TGI,SNB-75 CNS,> 10 µM
same,TGI,NCI-H460 lung,> 10 µM
same,TGI,CAKI-1 renal,> 10 µM
same,TGI,SK-MEL-5 melanoma,> 10 µM
same,TGI,OVCAR-8 ovarian,> 10 µM
same,TGI,MCF7 breast,> 10 µM
same,TGI,M14 melanoma,> 10 µM
same,TGI,SW-620 colon,> 10 µM
same,TGI,HOP-62 NSCLC,> 10 µM
same,TGI,SN12C renal,> 10 µM
same,TGI,A498 renal,> 10 µM
same,TGI,OVCAR-4 ovarian,> 10 µM
